Source: patent US11820755B2, “Uracil compound and use thereof” (Sumitomo Chemical Company, Limited, priority 2018, dated 2023)

Experiments:
[1] = tested on: barley scald fungi (Rhynchosporium secalis); experiment: Titer plate growth test of barley scald fungi in potato broth medium (absorbance at 600 nm); type: cell-based; conditions: 4.7 ppm, cultured at 18° C. for 7 days
Description: Each 1 μL of a solution containing the compound A at a predetermined concentration in dimethylsulfoxide was dispensed into a titer plate (96 wells), and then each 150 μL of potato broth medium containing suspension of spore of wheat leaf stripe fungi (Septoria tritici) was dispensed so that the concentration of the compound A was finally 4.7 ppm. The plate was cultured at 18° C. for 4 days, thereby allowing the wheat leaf stripe fungi to undergo proliferation, and the absorbance at 600 nm of each well of the titer plate was then measured to determine a degree of growth of the wheat leaf stripe fungi. The efficacy was calculated from the determined degree of growth by the below-mentioned “Equation 1”. Efficacy (%)=100×(X−Y)/X “Equation 1” wherein • X: Degree of fungal growth in non-treated area • Y: Degree of fungal growth in treated area The “Non-treated area” represents an area where a similar treatment procedure to that of the treated area except for not using the compound A is done. […] The plate was cultured at 18° C. for 7 days, thereby allowing the barley scald fungi to undergo proliferation, and the absorbance at 600 nm of each well of the titer plate was then measured to determine a degree of growth of the barley scald fungi. The efficacy was calculated from the determined degree of growth by the below-mentioned “Equation 1”. […]

[2] = tested on: wheat leaf stripe fungi (Septoria tritici); experiment: Titer plate growth test of wheat leaf stripe fungi in potato broth medium (absorbance at 600 nm); type: cell-based; conditions: cultured at 18° C. for 4 days
Description: Each 1 μL of a solution containing the compound A at a predetermined concentration in dimethylsulfoxide was dispensed into a titer plate (96 wells), and then each 150 μL of potato broth medium containing suspension of spore of wheat leaf stripe fungi (Septoria tritici) was dispensed so that the concentration of the compound A was finally 4.7 ppm. The plate was cultured at 18° C. for 4 days, thereby allowing the wheat leaf stripe fungi to undergo proliferation, and the absorbance at 600 nm of each well of the titer plate was then measured to determine a degree of growth of the wheat leaf stripe fungi. The efficacy was calculated from the determined degree of growth by the below-mentioned “Equation 1”. Efficacy (%)=100×(X−Y)/X “Equation 1” wherein • X: Degree of fungal growth in non-treated area • Y: Degree of fungal growth in treated area The “Non-treated area” represents an area where a similar treatment procedure to that of the treated area except for not using the compound A is done. Each 1 μL of a solution containing the compound A at a predetermined concentration in dimethylsulfoxide was dispensed into a titer plate (96 wells), and then each 150 μL of potato broth medium containing suspension of spore of wheat leaf stripe fungi was dispensed so that the concentration of the compound A was finally 1.2 ppm. The plate was cultured at 18° C. for 4 days, thereby allowing the wheat leaf stripe fungi to undergo proliferation, and the absorbance at 600 nm of each well of the titer plate was then measured to determine a degree of growth of the wheat leaf stripe fungi. The efficacy was calculated from the determined degree of growth by the below-mentioned “Equation 1”. As a result, the efficacy was 53%. The test was carried out according to Test Example 1 using the compound B instead of the compound A. As a result, the efficacy was 45%. The test was carried out according to Test Example 2 using the compound B instead of the compound A. As a result, the efficacy was 12%.

[3] = 1.2 ppm, wheat leaf stripe fungi

| SMILES | Efficacy (%) [1] | Efficacy (%) [2, 3] | Efficacy (%) ([2]; 4.7 ppm, Septoria tritici) |
| --- | --- | --- | --- |
| COc1ncccc1Oc1cc(-n2c(=O)cc(C(F)(F)F)n(C)c2=O)c(F)cc1Cl [Compound B] | 41% | 12% | 45% |
| CCOc1ncccc1Oc1cc(-n2c(=O)cc(C(F)(F)F)n(C)c2=O)c(F)cc1Cl [Compound A] | 94% | 53% | 73% |
